Series [1] can be described thus: Acute toxicity, mice, oral. As to conditions: mouse, in vivo, 7 days observation. An excerpt:
There was examined and observed the acute toxicity of the compounds to be examined for 7 days in the case of oral administration to mice.

Series [2] has as its system heart beat numbers of the guinea pig. Nature of the series: Effect on the heart beat numbers, conscious guinea pigs. As to conditions: for increasing action to the heart beat numbers of the guinea pig: calculation from the product of the intensity action with the durability. In kind it is in vivo. As to the method: Effect On The Heart Beat Numbers
(1) Conscious guinea pigs
The guinea pigs were used, in which electrodes of stainless steel were pierced and put in both forelegs of the respective guinea pigs under previous anesthesia (after 24 hours from this operation).
The guinea pigs were isolated one by one in observation boxes, recorded their electrocardiogram (the first induction) under quiet circumstances, and heart beat numbers were counted.
All compounds to be examined were administered orally. The recording and measuring were carried out three times before the administration and with the lapse of time until 180 minutes after the administration.
Calculation From The Product Of The Intensity Action With The Durability

Series [3] concerns asthmatous fit caused by the histamine spray. Nature of the series: Protecting effect against the dyspnea (asthmatous fit) caused by histamine spray, guinea pigs, oral. Format: in vivo, guinea pigs of Hartley strain. As to conditions: for ED50: Cavia porcellus, read-out: ED 50, protecting effect on the asthmatous fit caused by the histamine spray; for protecting effect relative to the two controls, salbutamol and isoproterenol / durability action of the protecting effect / Ratio to isoproterenol (protecting effect): guinea pigs; for durability action of the protecting effect: in words; for Ratio to isoproterenol (protecting effect): isoproterenol = 100. As to the method: Protecting Effect Against The Dyspnea Caused By The Histamine
Male guinea pigs of Hartley strain were used. Aqueous solutions of the compounds to be examined were prepared in various concentrations, and administered orally to the guinea pigs, in a dose of 10 ml/Kg, respectively. After the oral administration, the guinea pigs were taken in a dome. Histamine solution in a concentration of 0.1% was sprayed through a nebulizer at a blow rate of 3500 ml/min. Two symptoms of hypoxia and fit of caughing were used as indices, and a probable appearing time of said two symptoms was watched and observed for 20 minutes from the start of the spraying.
The protecting effect was judged to be effective with the appearing time more than the double of the mean appearing time in 33 examples of the groups wherein physiological saline water was administered.

In series [4] the test system is blood pressure in the anesthetized dogs. Nature of the series: Effect on the blood pressure, anesthetized dogs. Format: in vivo. As to the method:
(§1) Normally healthy dogs (body weights were 10-15 Kg) were used as subject animals, and anesthetized with sodium pentobarbital urethane. The compounds to be examined were injected into the femoral vein of the dog. The inhibitory effect on the increasing reaction of the histamine (10 μg/Kg were administered) to the air way resistance was determined by Konzett-Rossler method.
Effect On The Blood Pressure
Using the anesthetized dogs as same as pharmacological experiment 2, and injecting the compounds to be examined into the dogs from the femoral vein, the effect on the blood pressure was examined.

Series [5] has as its system air way resistance increased by histamine. Nature of the series: Inhibitory effect on the increasing reaction of the air-way resistance of histamine (Konzett-Rossler), anesthetized dogs. In kind it is in vivo. As to the method:
Inhibitory Effect On The Increasing Reaction Of The Air-Way Resistance Of Histamine
as §1

The subject of series [6] is heart beat numbers of the anesthetized dogs. Briefly: Effect on the heart beat numbers, anesthetized dogs. In kind it is in vivo. The following applies: intravenous. As to the method: as §1
Using anesthetized dogs as same as the pharmacological experiment 2, and injecting the compounds to be examined into the dogs from the femoral vein thereof, the increasing actions to the heart beat numbers were examined.

Setting [7] is: oral, male Hartley guinea pigs, 0.1% histamine spray.

Entries after “also recorded” stand apart in the source; their conditions may differ. Where a name gives a salt, the structure may show the parent alone. Read-outs that look alike come from different tables or passages of the source.

On to `COCc1cc(C(O)CNC(C)Cc2ccc(OC)cc2)ccc1O.O=C(O)/C=C/C(=O)O` (stereo not drawn) [Compound A, 1-(4-hydroxy-3-methoxymethylphenyl)-2-(α-methyl-4-methoxyphenethylamino)ethanol fumarate], for which the 50% lethal dose (LD50) (commonly the dose at which mortality reaches 50%) at 168 h in series [1] is 1050 mg/kg. The “increasing action to the heart beat numbers of the guinea pig” value (shortened to “increasing action … of the guinea pig”) in series [2] (0.3 mg/Kg oral) is listed as 36.8. In series [2] (3 mg/Kg oral), the “increasing action … of the guinea pig” value is listed as 75.0. Besides, the “increasing action … of the guinea pig” value in series [2] (30 mg/Kg oral) was 93.7. The “increasing action to the heart beat numbers, in words” value in series [2] (oral, conscious guinea pigs, fumarate) is “distinct increasing action to the heart beat numbers with the dosage of 0.3 mg/Kg; also recorded: relatively same as that of Salbutamol and weaker than that of Isoproterenol”. In series [3] (po), the ED50 is 0.39 mg/kg. Besides, in series [3] (oral), the “protecting effect relative to the two controls, salbutamol and isoproterenol” value is 5-7 times; the “durability action of the protecting effect” value (from here on “durability action”) was “extended obviously longer than those of the two controls”; the “Ratio to isoproterenol (protecting effect)” value (“Ratio to isoproterenol” below) was found to be 744. Besides, the “dosage showing remarkable depression effect upon the blood pressure” value in series [4] (intravenous, anesthetized dogs) is “more than 3 μg/Kg”. Besides, in series [5] (Canis lupus familiaris, iv, read-out: inhibitory effect on the increasing reaction of the histamine to the air way resistance), the inhibition at 0.003 mg/kg was over 50%. For the same compound, in series [5] (intravenous, anesthetized dogs, fumarate), the “inhibitory effect on air way resistance, comparison and durability in words” value is “almost same as those of salbutamol”. Also, in series [6], the “dosage showing increasing action to the heart beat numbers” value was “more than 3 μg/Kg”; the “increasing action to the heart beat numbers, comparison in words” value was “weaker than that of Isoproterenol, and rather more intense than that of Salbutamol”.
On to `COCc1cc(C(O)CNC(C)Cc2ccc3c(c2)OCO3)ccc1O` (stereo not drawn) [Compound B, 1-(4-hydroxy-3-methoxymethylphenyl)-2-(α-methyl-3,4-methylenedioxyphenethylamine)ethanol oxalate], for which, in series [1], the LD50 at 168 h stood at 1200 mg/kg. The ED50 in series [3] (setting [7]) is 0.56 mg/kg. In series [3] (oral), the “protecting effect relative to the two controls, salbutamol and isoproterenol” value was 5-7 times; the “durability action” value is “extended obviously longer than those of the two controls”; the “Ratio to isoproterenol” value is on record as 518.
For `COCc1cc(C(O)CNC(C)Cc2ccc(O)cc2)ccc1O.O=C(O)C(=O)O` (stereo not drawn) [Compound C, 1-(4-hydroxy-3-methoxymethylphenyl)-2-(α-methyl-4-hydroxyphenethylamino)ethanol oxalate], the LD50 at 168 h in series [1] is 1200 mg/kg. The ED50 in series [3] (po) is 0.36 mg/kg. In series [3] (oral), the “protecting effect relative to the two controls, salbutamol and isoproterenol” value was 5-7 times; the “durability action” value was “extended obviously longer than those of the two controls”; the “Ratio to isoproterenol” value is listed as 806.
Consider `CC(C)NCC(O)c1ccc(O)c(O)c1` [Isoproterenol, L-isoproterenol hydrochloride, reference compound], for which the “increasing action … of the guinea pig” value in series [2] (0.3 mg/Kg oral) is given as 87.3; in series [2] (3 mg/Kg oral) it was 86.9; in series [2] (30 mg/Kg oral) it was 147.0. In series [3] (setting [7]), the ED50 amounted to 2.9 mg/kg. Besides, the “depression effect on the blood pressure, in words” value in series [4] (dog, in vivo, iv) is recorded as “more intense depression effect than that of the compound A of this invention”. The “durability effect on the blood pressure, in words” value in series [4] (dog, in vivo, iv) is “relatively short in durability effect”. Also, in series [5] (Canis lupus familiaris, 10 min, 30 μg/Kg, intravenous, after 10 minutes, read-out: inhibitory effect on air way resistance 10 minutes after the administration), the inhibition at 0.03 mg/kg came to 10%. The minimal effective dose in series [5] (Canis lupus familiaris, intravenous, immediately after administration, read-out: dose with distinct inhibitory effect on air way resistance immediately after the administration) is about 0.001 mg/kg.
For the compound `CC(C)(C)NCC(O)c1ccc(O)c(CO)c1.Cl` (stereo not shown) [Salbutamol, 1-(4-hydroxy-3-hydroxymethylphenyl)-2-(t-butylamino)-ethanol hydrochloride, reference compound], the ED50 in series [3] (setting [7]) was determined as 2.25 mg/kg. In series [4] (dog, in vivo, iv), the “depression effect on the blood pressure, in words” value was “rather weaker tendency”.

The values are drawn from patent US4376780A, “Novel phenethylamine derivatives and bronchdilator containing the same” (Eisai Co., Ltd., priority 1976, dated 1983).
